Laboratory results taken from patent US10744171B2, “Sequential anti-cancer treatment” (Duke University, priority 2016, dated 2020).

System: recurrent glioblastoma (WHO grade IV)
Settings: human, in vivo

O=NN(CCCl)C(=O)NC1CCCCC1 [lomustine]
clinical and imaging response after one cycle: significant clinical and imaging response
imaging and clinical response after first six weeks of therapy (one cycle), both of two patients: significant imaging and clinical improvement
response on brain scans after chemotherapy was added to Avastin: Response
time disease free (complete tumor disappearance) post PVSRIPO infusion: > 32 months
